# Test system: ZIKV
# Experiment: microbe, parasite or virus in culture
# Assay type: cell-based, Zika virus
# Settings: 48 hrs
Compound,"EC50 (Zika virus, Huh-7) [nM]",EC50 [nM]
"CC[C@@H](C)[C@H](NC(=O)OC)C(=O)N1[C@@H](C)CC[C@H]1c1nc(C(C)C)c(-c2ccc3c(c2)COc2cc4c(ccc5nc([C@@H]6CC[C@H](C)N6C(=O)[C@@H](NC(=O)OC)[C@H](C)CC)[nH]c54)cc2-3)[nH]1 [Compound 46, methyl ((2S,3R)-1-((2S,5S)-2-(4-isopropyl-5-(2-((2S,5S)-1-((methoxycarbonyl)-L-alloisoleucyl)-5-methylpyrrolidin-2-yl)-1,11-dihydroisochromeno[4′,3′:6,7]naphtho[1,2-d]imidazol-9-yl)-1H-imidazol-2-yl)-5-methylpyrrolidin-1-yl)-3-methyl-1-oxopentan-2-yl)carbamate]",26.7,–
"COC(=O)N[C@H](C(=O)N1[C@@H](C)CC[C@H]1c1nc(C(C)C)c(-c2ccc3c(c2)COc2cc4c(ccc5nc([C@@H]6CC[C@H](C)N6C(=O)[C@@H](NC(=O)OC)C(C)(C)CF)[nH]c54)cc2-3)[nH]1)C(C)(C)CF [Compound 47, methyl ((S)-4-fluoro-1-((2S,5S)-2-(5-(2-((2S,5S)-1-((S)-4-fluoro-2-((methoxycarbonyl)amino)-3,3-dimethylbutanoyl)-5-methylpyrrolidin-2-yl)-1,11-dihydroisochromeno[4′,3′:6,7]naphtho[1,2-d]imidazol-9-yl)-4-isopropyl-1H-imidazol-2-yl)-5-methylpyrrolidin-1-yl)-3,3-dimethyl-1-oxobutan-2-yl)carbamate]",21.7,–
"methyl ((2S,3S)-1-((S)-6-(4-chloro-5-(2-((S)-5-((methoxycarbonyl)-L-isoleucyl)-5-azaspiro[2.4]heptan-6-yl)-1-dihydroisochromeno[4′,3′:6,7]naphtho[1,2-d]imidazol-9-yl)-1H-imidazol-2-yl)-5-azaspiro[2.4]heptan-5-yl)-3-methyl-1-oxopentan-2-yl)carbamate [Compound 3]",–,18.6
"methyl ((S)-1-((2S,5S)-2-(5-(2-((2S,5S)-1-(O-(tert-butyl)-N-(methoxycarbonyl)-L-threonyl)-5-methylpyrrolidin-2-yl)-1,11-dihydroisochromeno[4′,3′:6,7]naphtho[1,2-d]imidazol-9-yl)-4-chloro-1H-imidazol-2-yl)-5-methylpyrrolidin-1-yl)-3-methyl-1-oxobutan-2-yl)carbamate [Compound 1]",–,24.9

# Source: US12037340B2, “Pentacyclic derivatives as Zika virus inhibitors” (Gilead Sciences, Inc., priority 2021, dated 2024)
